From the NIST ThermoML archive (doi:10.1016/j.jct.2008.04.005) come the findings set out here.

The nature of this data set: molar enthalpy of vaporization or sublimation. Conditions: 298.15 K, Liquid.

± gives the expanded uncertainty stated by the source.

For the compound `Cc1ccc(C)s1` [2,5-dimethylthiophene], the molar enthalpy (Calvet microcalorimetry) came to 40.2 ± 1.8 kJ/mol.
As for `CC(=O)c1cc(C)sc1C` [3-acetyl-2,5-dimethylthiophene], the molar enthalpy (Vacuum drop calorimetry) is 61.3 ± 2.6 kJ/mol.
